# The NIST ThermoML archive (doi:10.1021/je050065n)
# ± gives the expanded uncertainty stated by the source.
# Experiments:
# [1] = Molar enthalpy of transition or fusion; details: Crystal
# [2] = molar heat capacity at constant pressure; details: 101.33 kPa
compound,measurement,setting,value
CCCCCCCCCCC(=O)OCC [ethyl undecanoate],Triple point temperature,Crystal,259.17 ± 0.31 K
same,Normal melting temperature,Metastable crystal,-21.8 ± 0.1 °C
same,Molar enthalpy of transition or fusion,[1],8.628 ± 0.0717 kcal/mol
same,molar heat capacity at constant pressure,"[2]; 111.58 K, Crystal",173.66 ± 3 J/K/mol
same,molar heat capacity at constant pressure,"[2]; 113.84 K, Crystal",175.94 ± 3 J/K/mol
same,molar heat capacity at constant pressure,"[2]; 116.71 K, Crystal",178.91 ± 3 J/K/mol
same,molar heat capacity at constant pressure,"[2]; 119.57 K, Crystal",181.88 ± 3.1 J/K/mol
same,molar heat capacity at constant pressure,"[2]; 122.42 K, Crystal",185.27 ± 3.1 J/K/mol
same,molar heat capacity at constant pressure,"[2]; 128.15 K, Crystal",190.48 ± 3.1 J/K/mol
same,molar heat capacity at constant pressure,"[2]; 131.02 K, Crystal",194.47 ± 3.2 J/K/mol
same,molar heat capacity at constant pressure,"[2]; 133.86 K, Crystal",198.69 ± 3.2 J/K/mol
same,molar heat capacity at constant pressure,"[2]; 136.66 K, Crystal",198.56 ± 3.2 J/K/mol
same,molar heat capacity at constant pressure,"[2]; 139.44 K, Crystal",201.64 ± 3.2 J/K/mol
same,molar heat capacity at constant pressure,"[2]; 142.19 K, Crystal",204.69 ± 3.2 J/K/mol
same,molar heat capacity at constant pressure,"[2]; 144.9 K, Crystal",207.94 ± 3.3 J/K/mol
same,molar heat capacity at constant pressure,"[2]; 147.59 K, Crystal",211.29 ± 3.3 J/K/mol
same,molar heat capacity at constant pressure,"[2]; 150.26 K, Crystal",213.75 ± 3.3 J/K/mol
same,molar heat capacity at constant pressure,"[2]; 152.89 K, Crystal",217.3 ± 3.3 J/K/mol
same,molar heat capacity at constant pressure,"[2]; 155.51 K, Crystal",220.97 ± 3.4 J/K/mol
same,molar heat capacity at constant pressure,"[2]; 158.1 K, Crystal",224.09 ± 3.4 J/K/mol
same,molar heat capacity at constant pressure,"[2]; 160.67 K, Crystal",229.12 ± 3.4 J/K/mol
same,molar heat capacity at constant pressure,"[2]; 163.21 K, Crystal",233.25 ± 3.5 J/K/mol
same,molar heat capacity at constant pressure,"[2]; 165.73 K, Crystal",236.15 ± 3.5 J/K/mol
same,molar heat capacity at constant pressure,"[2]; 168.24 K, Crystal",230.57 ± 3.4 J/K/mol
same,molar heat capacity at constant pressure,"[2]; 170.74 K, Crystal",232.17 ± 3.5 J/K/mol
same,molar heat capacity at constant pressure,"[2]; 173.23 K, Crystal",234.76 ± 3.5 J/K/mol
same,molar heat capacity at constant pressure,"[2]; 175.7 K, Crystal",236.78 ± 3.5 J/K/mol
same,molar heat capacity at constant pressure,"[2]; 178.15 K, Crystal",239.4 ± 3.5 J/K/mol
same,molar heat capacity at constant pressure,"[2]; 180.59 K, Crystal",242.15 ± 3.5 J/K/mol
same,molar heat capacity at constant pressure,"[2]; 183.01 K, Crystal",244.19 ± 3.5 J/K/mol
same,molar heat capacity at constant pressure,"[2]; 185.42 K, Crystal",245.75 ± 3.6 J/K/mol
same,molar heat capacity at constant pressure,"[2]; 187.81 K, Crystal",248.17 ± 3.6 J/K/mol
same,molar heat capacity at constant pressure,"[2]; 190.18 K, Crystal",251.89 ± 3.6 J/K/mol
same,molar heat capacity at constant pressure,"[2]; 192.55 K, Crystal",256.43 ± 3.6 J/K/mol
same,molar heat capacity at constant pressure,"[2]; 194.9 K, Crystal",257.21 ± 3.7 J/K/mol
same,molar heat capacity at constant pressure,"[2]; 197.24 K, Crystal",257.78 ± 3.7 J/K/mol
same,molar heat capacity at constant pressure,"[2]; 199.56 K, Crystal",262.12 ± 3.7 J/K/mol
same,molar heat capacity at constant pressure,"[2]; 201.88 K, Crystal",266.33 ± 3.7 J/K/mol
same,molar heat capacity at constant pressure,"[2]; 204.18 K, Crystal",269.86 ± 3.8 J/K/mol
same,molar heat capacity at constant pressure,"[2]; 206.47 K, Crystal",268.45 ± 3.8 J/K/mol
same,molar heat capacity at constant pressure,"[2]; 208.75 K, Crystal",272.25 ± 3.8 J/K/mol
same,molar heat capacity at constant pressure,"[2]; 211.01 K, Crystal",276.09 ± 3.8 J/K/mol
same,molar heat capacity at constant pressure,"[2]; 213.26 K, Crystal",279.59 ± 3.8 J/K/mol
same,molar heat capacity at constant pressure,"[2]; 215.5 K, Crystal",279.55 ± 3.8 J/K/mol
same,molar heat capacity at constant pressure,"[2]; 217.73 K, Crystal",283.48 ± 3.9 J/K/mol
same,molar heat capacity at constant pressure,"[2]; 219.95 K, Crystal",287.5 ± 3.9 J/K/mol
same,molar heat capacity at constant pressure,"[2]; 222.16 K, Crystal",290.42 ± 3.9 J/K/mol
same,molar heat capacity at constant pressure,"[2]; 224.36 K, Crystal",293.74 ± 4 J/K/mol
same,molar heat capacity at constant pressure,"[2]; 226.54 K, Crystal",297.69 ± 4 J/K/mol
same,molar heat capacity at constant pressure,"[2]; 228.71 K, Crystal",302.05 ± 4 J/K/mol
same,molar heat capacity at constant pressure,"[2]; 230.87 K, Crystal",307.08 ± 4.1 J/K/mol
same,molar heat capacity at constant pressure,"[2]; 233.01 K, Crystal",312.1 ± 4.1 J/K/mol
same,molar heat capacity at constant pressure,"[2]; 235.14 K, Crystal",318.94 ± 4.2 J/K/mol
same,molar heat capacity at constant pressure,"[2]; 237.26 K, Crystal",327.12 ± 4.2 J/K/mol
same,molar heat capacity at constant pressure,"[2]; 239.36 K, Crystal",337.32 ± 4.3 J/K/mol
same,molar heat capacity at constant pressure,"[2]; 241.44 K, Crystal",349.15 ± 4.4 J/K/mol
same,molar heat capacity at constant pressure,"[2]; 243.49 K, Crystal",366.65 ± 4.5 J/K/mol
same,molar heat capacity at constant pressure,"[2]; 245.51 K, Crystal",390.29 ± 4.7 J/K/mol
same,molar heat capacity at constant pressure,"[2]; 247.49 K, Crystal",425.06 ± 5 J/K/mol
same,molar heat capacity at constant pressure,"[2]; 265.23 K, Liquid",419.66 ± 2.5 J/K/mol
same,molar heat capacity at constant pressure,"[2]; 267.18 K, Liquid",419.56 ± 2.5 J/K/mol
same,molar heat capacity at constant pressure,"[2]; 269.12 K, Liquid",420.55 ± 2.5 J/K/mol
same,molar heat capacity at constant pressure,"[2]; 271.06 K, Liquid",421.01 ± 2.5 J/K/mol
same,molar heat capacity at constant pressure,"[2]; 272.99 K, Liquid",421.34 ± 2.5 J/K/mol
same,molar heat capacity at constant pressure,"[2]; 274.93 K, Liquid",422.4 ± 2.5 J/K/mol
same,molar heat capacity at constant pressure,"[2]; 276.86 K, Liquid",423.5 ± 2.5 J/K/mol
same,molar heat capacity at constant pressure,"[2]; 278.79 K, Liquid",424.54 ± 2.5 J/K/mol
same,molar heat capacity at constant pressure,"[2]; 280.72 K, Liquid",424.74 ± 2.5 J/K/mol
same,molar heat capacity at constant pressure,"[2]; 282.65 K, Liquid",425.25 ± 2.5 J/K/mol
same,molar heat capacity at constant pressure,"[2]; 284.57 K, Liquid",425.82 ± 2.5 J/K/mol
same,molar heat capacity at constant pressure,"[2]; 286.49 K, Liquid",426.92 ± 2.5 J/K/mol
same,molar heat capacity at constant pressure,"[2]; 288.42 K, Liquid",427.56 ± 2.5 J/K/mol
same,molar heat capacity at constant pressure,"[2]; 290.34 K, Liquid",427.6 ± 2.5 J/K/mol
same,molar heat capacity at constant pressure,"[2]; 292.25 K, Liquid",429.47 ± 2.5 J/K/mol
same,molar heat capacity at constant pressure,"[2]; 292.35 K, Liquid",429.73 ± 2.5 J/K/mol
same,molar heat capacity at constant pressure,"[2]; 293.82 K, Liquid",430.15 ± 2.5 J/K/mol
same,molar heat capacity at constant pressure,"[2]; 294.17 K, Liquid",430.48 ± 2.5 J/K/mol
same,molar heat capacity at constant pressure,"[2]; 295.74 K, Liquid",431.35 ± 2.5 J/K/mol
same,molar heat capacity at constant pressure,"[2]; 296.09 K, Liquid",431.3 ± 2.5 J/K/mol
same,molar heat capacity at constant pressure,"[2]; 297.65 K, Liquid",432.04 ± 2.5 J/K/mol
same,molar heat capacity at constant pressure,"[2]; 298 K, Liquid",431.45 ± 2.5 J/K/mol
same,molar heat capacity at constant pressure,"[2]; 299.55 K, Liquid",433.51 ± 2.5 J/K/mol
same,molar heat capacity at constant pressure,"[2]; 299.92 K, Liquid",432.3 ± 2.5 J/K/mol
same,molar heat capacity at constant pressure,"[2]; 301.45 K, Liquid",434.67 ± 2.5 J/K/mol
same,molar heat capacity at constant pressure,"[2]; 301.84 K, Liquid",434.2 ± 2.5 J/K/mol
same,molar heat capacity at constant pressure,"[2]; 303.35 K, Liquid",436.03 ± 2.5 J/K/mol
same,molar heat capacity at constant pressure,"[2]; 303.75 K, Liquid",436.09 ± 2.5 J/K/mol
same,molar heat capacity at constant pressure,"[2]; 305.23 K, Liquid",437.3 ± 2.5 J/K/mol
same,molar heat capacity at constant pressure,"[2]; 305.67 K, Liquid",436.86 ± 2.5 J/K/mol
same,molar heat capacity at constant pressure,"[2]; 307.12 K, Liquid",438.29 ± 2.5 J/K/mol
same,molar heat capacity at constant pressure,"[2]; 307.58 K, Liquid",437.94 ± 2.5 J/K/mol
same,molar heat capacity at constant pressure,"[2]; 309 K, Liquid",438.55 ± 2.5 J/K/mol
same,molar heat capacity at constant pressure,"[2]; 309.5 K, Liquid",438.69 ± 2.5 J/K/mol
same,molar heat capacity at constant pressure,"[2]; 310.87 K, Liquid",439.73 ± 2.6 J/K/mol
same,molar heat capacity at constant pressure,"[2]; 311.41 K, Liquid",439.51 ± 2.6 J/K/mol
same,molar heat capacity at constant pressure,"[2]; 312.74 K, Liquid",440.36 ± 2.6 J/K/mol
same,molar heat capacity at constant pressure,"[2]; 313.32 K, Liquid",440.63 ± 2.6 J/K/mol
same,molar heat capacity at constant pressure,"[2]; 314.61 K, Liquid",441.72 ± 2.6 J/K/mol
same,molar heat capacity at constant pressure,"[2]; 315.24 K, Liquid",441.69 ± 2.6 J/K/mol
same,molar heat capacity at constant pressure,"[2]; 316.48 K, Liquid",441.83 ± 2.6 J/K/mol
same,molar heat capacity at constant pressure,"[2]; 317.15 K, Liquid",443.16 ± 2.6 J/K/mol
same,molar heat capacity at constant pressure,"[2]; 318.35 K, Liquid",443.44 ± 2.6 J/K/mol
same,molar heat capacity at constant pressure,"[2]; 320.22 K, Liquid",444.36 ± 2.6 J/K/mol
same,molar heat capacity at constant pressure,"[2]; 322.09 K, Liquid",445.9 ± 2.6 J/K/mol
same,molar heat capacity at constant pressure,"[2]; 323.96 K, Liquid",447.6 ± 2.6 J/K/mol
same,molar heat capacity at constant pressure,"[2]; 325.83 K, Liquid",448.49 ± 2.6 J/K/mol
same,molar heat capacity at constant pressure,"[2]; 327.7 K, Liquid",449.5 ± 2.6 J/K/mol
same,molar heat capacity at constant pressure,"[2]; 329.57 K, Liquid",450.4 ± 2.6 J/K/mol
same,molar heat capacity at constant pressure,"[2]; 331.44 K, Liquid",451.66 ± 2.6 J/K/mol
same,molar heat capacity at constant pressure,"[2]; 333.31 K, Liquid",453.33 ± 2.6 J/K/mol
same,molar heat capacity at constant pressure,"[2]; 335.19 K, Liquid",455.41 ± 2.6 J/K/mol
same,molar heat capacity at constant pressure,"[2]; 337.06 K, Liquid",456.14 ± 2.6 J/K/mol
same,molar heat capacity at constant pressure,"[2]; 338.94 K, Liquid",456.81 ± 2.6 J/K/mol
same,molar heat capacity at constant pressure,"[2]; 340.81 K, Liquid",458.35 ± 2.6 J/K/mol
same,molar heat capacity at constant pressure,"[2]; 342.69 K, Liquid",459.47 ± 2.6 J/K/mol
same,molar heat capacity at constant pressure,"[2]; 344.57 K, Liquid",461 ± 2.6 J/K/mol
same,molar heat capacity at constant pressure,"[2]; 346.45 K, Liquid",462.31 ± 2.6 J/K/mol
same,molar heat capacity at constant pressure,"[2]; 348.34 K, Liquid",463.75 ± 2.7 J/K/mol
same,molar heat capacity at constant pressure,"[2]; 350.22 K, Liquid",465.1 ± 2.7 J/K/mol
same,molar heat capacity at constant pressure,"[2]; 352.11 K, Liquid",466.34 ± 2.7 J/K/mol
same,molar heat capacity at constant pressure,"[2]; 354 K, Liquid",467.34 ± 2.7 J/K/mol
same,molar heat capacity at constant pressure,"[2]; 355.9 K, Liquid",468.59 ± 2.7 J/K/mol
same,molar heat capacity at constant pressure,"[2]; 357.8 K, Liquid",469.5 ± 2.7 J/K/mol
same,molar heat capacity at constant pressure,"[2]; 359.7 K, Liquid",471.05 ± 2.7 J/K/mol
same,molar heat capacity at constant pressure,"[2]; 361.6 K, Liquid",472.21 ± 2.7 J/K/mol
same,molar heat capacity at constant pressure,"[2]; 363.51 K, Liquid",473.69 ± 2.7 J/K/mol
same,molar heat capacity at constant pressure,"[2]; 365.42 K, Liquid",475.18 ± 2.7 J/K/mol
